The term IC50 denotes the midpoint of a concentration-inhibition curve.

Results on two compounds are retold here after patent publication US20100204247A1, “N-SUBSTITUTED OXINDOLINE DERIVATIVES AS CALCIUM CHANNEL BLOCKERS” (priority 2007, published 2010).

For this assay, the target named is T1, N-type calcium channel (Human Cav2.2 channels) (Homo sapiens, UniProt Q00975).
T1 construct: expressed in transfected cells
The experiment in a line: N-type calcium channel (Cav2.2) antagonist assays: fluorescent potassium depolarization assay, IonWorks and PatchXpress/manual patch clamp electrophysiology. The note with it: in the aforementioned assays (Assay Examples 1-3); the specific assay is not stated; read-out: IC50, antagonizing the N-type calcium channel. The assay is classed as cell-based. An excerpt:
Fluorescent Assay for Cav2.2 Channels using Potassium Depolarization to Initiate Channel Opening
Human Cav2.2 channels were stably expressed in KEK293 cells along with alpha2-delta and beta subunits of voltage-gated calcium channels. An inwardly rectifying potassium channel (Kir2.3) was also expressed in these cells to allow more precise control of the cell membrane potential by extracellular potassium concentration. At low bath potassium concentration, the membrane potential is relatively negative, and is depolarized as the bath potassium concentration is raised. In this way, the bath potassium concentration can be used to regulate the voltage-dependent conformations of the channels. […]
Calcium influx through Cav2.2 channels is determined using a calcium-sensitive fluorescent dye in combination with a fluorescent plate reader. Fluorescent changes were measured with either a VIPR (Aurora Instruments) or FLIPR (Molecular Devices) plate reader.
• 1. […] Read cell plate on VIPR instrument, Excitation=480 nm, Emission=535 nm • 9. With VIPR continuously reading, add 0.1 mL (96-well plate) or 0.03 mL (384-well plate) of Depolarization Buffer, which is 2× the final assay concentration, to the cell plate. […]
Block of N-type calcium channels is evaluated utilizing the IonWorks HT 384 well automated patch clamp electrophysiology device. […]
On the technique in general: In patch-clamp work, channel activity is measured electrically.

Molecules are shown by their SMILES.

T1 sequence (Q00975 whole entry): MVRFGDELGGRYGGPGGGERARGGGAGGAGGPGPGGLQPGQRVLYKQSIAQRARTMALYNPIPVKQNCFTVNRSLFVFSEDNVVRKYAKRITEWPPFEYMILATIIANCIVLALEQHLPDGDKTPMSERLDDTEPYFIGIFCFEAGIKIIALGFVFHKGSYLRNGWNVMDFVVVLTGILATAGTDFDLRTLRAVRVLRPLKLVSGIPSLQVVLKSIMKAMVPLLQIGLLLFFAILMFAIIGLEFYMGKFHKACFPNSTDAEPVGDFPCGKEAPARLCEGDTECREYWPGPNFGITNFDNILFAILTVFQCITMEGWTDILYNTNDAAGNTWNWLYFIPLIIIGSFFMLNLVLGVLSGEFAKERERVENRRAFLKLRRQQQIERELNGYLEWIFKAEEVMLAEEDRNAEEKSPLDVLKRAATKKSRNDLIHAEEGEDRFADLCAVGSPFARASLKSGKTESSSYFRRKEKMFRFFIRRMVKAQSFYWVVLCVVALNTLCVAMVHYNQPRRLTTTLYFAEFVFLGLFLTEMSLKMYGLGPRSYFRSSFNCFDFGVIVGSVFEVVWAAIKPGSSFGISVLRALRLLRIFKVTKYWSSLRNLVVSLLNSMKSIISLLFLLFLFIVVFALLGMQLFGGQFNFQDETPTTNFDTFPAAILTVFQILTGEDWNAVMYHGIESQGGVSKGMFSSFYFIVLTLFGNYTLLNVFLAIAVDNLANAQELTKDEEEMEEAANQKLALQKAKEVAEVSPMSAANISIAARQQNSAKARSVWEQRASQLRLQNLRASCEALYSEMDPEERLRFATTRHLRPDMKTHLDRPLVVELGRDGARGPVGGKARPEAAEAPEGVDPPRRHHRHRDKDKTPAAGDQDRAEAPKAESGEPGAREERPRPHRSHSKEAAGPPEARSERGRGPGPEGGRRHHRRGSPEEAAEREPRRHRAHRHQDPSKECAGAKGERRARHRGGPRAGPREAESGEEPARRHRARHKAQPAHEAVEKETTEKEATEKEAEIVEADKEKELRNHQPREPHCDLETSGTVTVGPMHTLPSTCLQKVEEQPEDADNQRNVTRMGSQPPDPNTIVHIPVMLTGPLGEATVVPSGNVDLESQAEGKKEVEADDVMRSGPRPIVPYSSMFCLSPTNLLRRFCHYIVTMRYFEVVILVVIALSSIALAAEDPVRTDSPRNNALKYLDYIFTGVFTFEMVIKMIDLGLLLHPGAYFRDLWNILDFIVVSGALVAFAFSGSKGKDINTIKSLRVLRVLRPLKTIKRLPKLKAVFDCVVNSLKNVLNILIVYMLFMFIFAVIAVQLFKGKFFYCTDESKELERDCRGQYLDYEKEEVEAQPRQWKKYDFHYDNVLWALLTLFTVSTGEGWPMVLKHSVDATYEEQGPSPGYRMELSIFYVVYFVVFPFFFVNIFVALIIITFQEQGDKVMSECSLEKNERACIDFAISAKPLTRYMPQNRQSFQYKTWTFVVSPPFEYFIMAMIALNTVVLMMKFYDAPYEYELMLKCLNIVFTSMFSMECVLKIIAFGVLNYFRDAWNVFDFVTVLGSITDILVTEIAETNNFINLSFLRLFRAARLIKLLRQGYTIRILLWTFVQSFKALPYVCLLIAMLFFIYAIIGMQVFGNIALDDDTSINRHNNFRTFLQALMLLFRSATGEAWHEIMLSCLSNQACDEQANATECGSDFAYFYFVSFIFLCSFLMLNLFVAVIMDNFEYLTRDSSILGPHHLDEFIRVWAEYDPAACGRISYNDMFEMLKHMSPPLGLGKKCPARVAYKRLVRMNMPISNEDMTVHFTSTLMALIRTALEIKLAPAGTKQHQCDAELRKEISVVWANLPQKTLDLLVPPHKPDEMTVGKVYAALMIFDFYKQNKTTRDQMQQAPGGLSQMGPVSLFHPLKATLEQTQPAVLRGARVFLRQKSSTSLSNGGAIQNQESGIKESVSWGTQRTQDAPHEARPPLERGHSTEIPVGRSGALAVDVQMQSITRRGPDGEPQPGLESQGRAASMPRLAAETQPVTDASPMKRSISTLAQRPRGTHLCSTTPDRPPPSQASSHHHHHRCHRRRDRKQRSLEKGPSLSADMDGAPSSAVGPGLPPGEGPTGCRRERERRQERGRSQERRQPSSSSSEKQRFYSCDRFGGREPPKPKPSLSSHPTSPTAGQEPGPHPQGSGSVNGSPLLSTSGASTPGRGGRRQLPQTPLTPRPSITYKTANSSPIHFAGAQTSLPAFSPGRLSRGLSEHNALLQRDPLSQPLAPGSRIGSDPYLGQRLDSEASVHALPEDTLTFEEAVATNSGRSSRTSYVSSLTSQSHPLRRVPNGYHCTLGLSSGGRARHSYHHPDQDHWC

On to `CC1(Cc2cc(F)cc(F)c2)C(=O)Nc2ccc(-c3ccc(F)cc3)cc21` (centres unmarked) [Example 12, 3-(3,5-difluorobenzyl)-5-(4-fluorophenyl)-3-methyl-1,3-dihydro-2H-indol-2-one], for which the 50% inhibitory concentration (IC50) was 590 nM. Take `CC1(Cc2cncnc2)C(=O)Nc2ccc(-c3cccc(OCC(F)(F)F)c3)cc21` (centres unmarked) [Example 15, 3-methyl-3-(pyrimidin-5-ylmethyl)-5-[3-(2,2,2-trifluoroethoxy)phenyl]-1,3-dihydro-2H-indol-2-one]: the IC50 is 140 nM.
